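These data come from cells grown in 96-well plates and exposed to compound for 48 hours at five concentrations. Abbreviation: GI50, concentration required for 50% inhibition of growth.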 Active and inactive are the calls of the source. No stated cut-off is given here; in the data, active = GI50 up to about 1.1 µM and inactive = higher. Peptide text beside a SMILES is read from it. * marks the point of attachment. Trt = c1ccc(C(c2ccccc2)(c2ccccc2)*)cc1; Cbz = O=C(OCc1ccccc1)*
Columns and labels:
Experiment in all cases: inhibition of tumour cell growth, NCI panel, 48 h
[1] = tested on: MDA-MB-435
[2] = tested on: MOLT-4
[3] = tested on: OVCAR-8
[4] = tested on: HCT-116
[5] = tested on: MDA-MB-231
[6] = tested on: RXF 393
[7] = tested on: ACHN
[8] = tested on: PC-3
[9] = tested on: OVCAR-4
[10] = tested on: SF-295
[11] = tested on: Malme-3M
[12] = tested on: A498
[13] = tested on: HOP-92
[14] = tested on: TK-10
[15] = tested on: MDA-N
[16] = tested on: DU-145
[17] = tested on: LOX IMVI
[18] = tested on: Hs-578T
[19] = tested on: HL-60

SMILES | GI50 [1] | GI50 [2] | GI50 [3] | GI50 [4] | GI50 [5] | GI50 [6] | GI50 [7] | GI50 [8] | GI50 [9] | GI50 [10] | GI50 [11] | GI50 [12] | GI50 [13] | GI50 [14] | GI50 [15] | GI50 [16] | GI50 [17] | GI50 [18] | GI50 [19]
O=C1CCCCC(=O)OC2(CCCCC2=O)CC1 (stereo not given) | > 100 µM (inactive) | > 100 µM (inactive) | > 100 µM (inactive) | > 100 µM (inactive) | > 100 µM (inactive) | > 100 µM (inactive) | > 100 µM (inactive) | > 100 µM (inactive) | > 100 µM (inactive) | > 100 µM (inactive) | > 100 µM (inactive) | > 100 µM (inactive) | > 100 µM (inactive) | > 100 µM (inactive) | > 100 µM (inactive) | > 100 µM (inactive) | – | – | –
CCOc1cc(NC(C)=O)ccc1C(=O)NN1C(=O)/C(=C/c2cc(OC)c(OC)c(OC)c2)N=C1c1ccccc1 | > 100 µM (inactive) | > 100 µM (inactive) | 63.5 µM (inactive) | > 100 µM (inactive) | – | – | > 100 µM (inactive) | – | > 100 µM (inactive) | > 100 µM (inactive) | 53.5 µM (inactive) | > 100 µM (inactive) | 23 µM (inactive) | – | > 100 µM (inactive) | – | > 100 µM (inactive) | > 100 µM (inactive) | > 100 µM (inactive)
COC(=O)C(CO)NC(=O)C(CSC(c1ccccc1)(c1ccccc1)c1ccccc1)NC(=O)OCc1ccccc1 (stereo not given) (Cbz-Cys(Trt)-Ser-OMe; configuration not given here) | 15.2 µM (inactive) | 0.61 µM (active) | 14.5 µM (inactive) | 12.3 µM (inactive) | 13.8 µM (inactive) | 8.91 µM (inactive) | 21.2 µM (inactive) | 12.3 µM (inactive) | 20.6 µM (inactive) | 17.1 µM (inactive) | 14.5 µM (inactive) | – | 15.2 µM (inactive) | 24.5 µM (inactive) | – | 19.1 µM (inactive) | 15.7 µM (inactive) | 18.5 µM (inactive) | 5.75 µM (inactive)
OC12COc3ccccc3C1Oc1ccccc1C2 (stereo not given) | > 100 µM (inactive) | > 100 µM (inactive) | > 100 µM (inactive) | > 100 µM (inactive) | > 100 µM (inactive) | – | > 100 µM (inactive) | > 100 µM (inactive) | > 100 µM (inactive) | > 100 µM (inactive) | > 100 µM (inactive) | > 100 µM (inactive) | > 100 µM (inactive) | > 100 µM (inactive) | > 100 µM (inactive) | > 100 µM (inactive) | > 100 µM (inactive) | – | –
CC1=C(c2ccccc2)NC(=S)C(C)C(c2ccccc2)=N1 (stereo not given) | 18.7 µM (inactive) | 15.2 µM (inactive) | 83.4 µM (inactive) | 27.5 µM (inactive) | > 100 µM (inactive) | 21.7 µM (inactive) | 11.7 µM (inactive) | – | 17.2 µM (inactive) | 29.1 µM (inactive) | 32.7 µM (inactive) | 27.2 µM (inactive) | – | 58.2 µM (inactive) | 16.9 µM (inactive) | 40.4 µM (inactive) | 30 µM (inactive) | – | 12.6 µM (inactive)
Nc1nc(N)c(C2=CCNCC2)c(=O)[nH]1 | > 100 µM (inactive) | > 100 µM (inactive) | > 100 µM (inactive) | > 100 µM (inactive) | > 100 µM (inactive) | > 100 µM (inactive) | > 100 µM (inactive) | > 100 µM (inactive) | > 100 µM (inactive) | > 100 µM (inactive) | > 100 µM (inactive) | > 100 µM (inactive) | > 100 µM (inactive) | – | – | > 100 µM (inactive) | – | > 100 µM (inactive) | > 100 µM (inactive)
COc1ccc(CCN(C)C(=O)CC(C#N)(c2ccccc2)c2ccc(OC)c(OC)c2)cc1OC (stereo not given) | > 100 µM (inactive) | > 45.9 µM (inactive) | > 100 µM (inactive) | > 100 µM (inactive) | – | > 86.5 µM (inactive) | > 100 µM (inactive) | > 100 µM (inactive) | > 100 µM (inactive) | > 100 µM (inactive) | > 100 µM (inactive) | > 100 µM (inactive) | 3.15 µM (inactive) | > 100 µM (inactive) | > 100 µM (inactive) | > 100 µM (inactive) | > 100 µM (inactive) | > 100 µM (inactive) | > 100 µM (inactive)
CCOC(=O)N(C)C(=C(F)F)C(F)(F)F | 22.8 µM (inactive) | 21.7 µM (inactive) | 23.8 µM (inactive) | 20.4 µM (inactive) | 28.5 µM (inactive) | – | > 10 µM (inactive) | 30.9 µM (inactive) | 28 µM (inactive) | 57.5 µM (inactive) | 14.6 µM (inactive) | – | 25.4 µM (inactive) | 27.8 µM (inactive) | 18.5 µM (inactive) | 33.2 µM (inactive) | 23 µM (inactive) | 30.4 µM (inactive) | 20.4 µM (inactive)
